{"source": "patent US7862815B2", "about": "“Methods for inhibiting angiogenesis with inhibitors of proadrenomedullin N-terminal 20 peptide (PAMP)” (The United States of America as represented by the …, priority 2002, dated 2011)", "key": {"athymic nude mice": {"tested_on": "athymic nude mice", "assay": "DIVAA with angioreactors, Example 2 (peptides in matrigel)", "type": "in vivo", "protocol": "(§1) Analysis and quantitation of angiogenesis was done using DIVAA as previously described (Martinez et al., J. Natl. Cancer Inst., 21; 94(16):1226-37, 2002; Guedez et al., Am. J. Pathol. 162, 1431-1439, 2003). Briefly, 10 mm long surgical-grade silicone tubes with only one end open (angioreactors) were filled with 20 μl of matrigel alone or mixed with AM, bFGF, VEGF, PAMP, and/or PAMP(12-20) at the indicated concentrations. Human lung cancer cell lines (see below) were also premixed with matrigel alone or in combination with PAMP(12-20) at 10,000 cells per angioreactor. After the matrigel solidified, the angioreactors were implanted into the dorsal flanks of anesthetized athymic nude mice (NCI colony). After eleven days, the mice were injected intravenously with 25 mg/ml FITC-dextran (100 μl/mouse, Sigma) 20 minutes before removing the angioreactors. Photographs of the implants were taken for visual examination of angiogenic response. Quantitation of neovascularization in the angioreactors was determined as the amount of fluorescence trapped in the implants and was measured in a HP Spectrophotometer (Perkin Elmer).\nTo further characterize this observation, an […] assay was employed that allows for more precise quantitation of angiogenic properties: the directed […] angiogenesis assay or DIVAA (Martinez et al., J. Natl. Cancer Inst., 21; 94(16): 1226-37, 2002; Guédez et al., Am. J. Pathol. 162, 1431-1439, 2003). The assay involves implanting small silicone capsules carrying the test substances under the skin of nude mice. After eleven days, the mice are injected with a specific amount of FITC-dextran, and the volume of blood circulating through the implant is quantified by measuring the fluorescence in the capsule. In addition, the new blood vessels growing into the silicone tube can be seen directly by transparency (FIG. 4A-F). […] The extent of the angiogenic response can be seen clearly when this response is compared with the negative control (FIG. 4A). The angiogenic response elicited by PAMP was dose-dependent (FIG. 4C-G). When compared to AM and VEGF responses at equimolar concentrations, a clear difference was observed."}, "A549": {"tested_on": "A549", "assay": "DIVAA, angiogenesis induced by tumor cells embedded in matrigel", "type": "in vivo, human", "settings": "A549, 10,000 cells per angioreactor, 100 nM PAMP(12-20)", "protocol": "as §1\n(§2) The human cancer cell lines used, A549 and H1299, were obtained from the American Tissue Culture Collection (ATCC) and fed with RPMI164O containing 10% fetal bovine serum (Invitrogen). […]"}, "H1299": {"tested_on": "H1299", "assay": "DIVAA, angiogenesis induced by tumor cells embedded in matrigel", "type": "in vivo, human", "settings": "H1299, 10,000 cells per angioreactor, 100 nM PAMP(12-20)", "protocol": "as §1, §2"}, "[1]": {"tested_on": "Human dermal microvascular endothelial cells", "assay": "Calcium measurements (ATP-induced calcium flux)", "type": "cell-based", "settings": "100 nM PAMP(12-20) with 10 nM PAMP and 1 mM ATP", "protocol": "Human dermal microvascular endothelial cells were obtained from Cell Applications, Inc. and cultured in 96-well plates at 1.0×10^5 cells per well. The cells were loaded for 60 minutes at room temperature with the fluorescent dye FLIPR (Molecular Devices) and then transferred to the FlexStation II (Molecular Devices) for analysis. The test compounds were prepared in another plate at a concentration of 5× and were added to the proper wells by the robotic arm of the FlexStation II. Fluorescence was measured every five seconds in each well and recorded. One mM ATP (Sigma) was used as a calcium agonist (Lau et al., Life Sci. 73, 20 19-2028, 2003)."}, "A549 tumors": {"tested_on": "A549 tumors", "assay": "Xenograft experiment", "type": "in vivo, athymic nude mice", "protocol": "Twenty female athymic nude mice from the NIH colony in Frederick (MD) were injected subcutaneously with 1.0×10^7 A549 cells/mouse. Two weeks later, all the mice had developed palpable tumors under the skin and at this time they were divided in two groups. Three times a week, each individual tumor was measured (length, height, thickness) and every mouse received an intratumoral injection, according to their group. Group 1 (control) received 100 μl PBS. […] When the tumor burden became unbearable, the mice were sacrificed."}}, "data": [{"substance": "proadrenomedullin N-terminal 20 peptide (12-20) (KWNKWALSR; listed as Homo sapiens) [PAMP(12-20), peptide which comprises only amino acids 12-20 of PAMP]", "values": [{"measurement": "inhibition of the angiogenic response elicited by PAMP", "setting": "athymic nude mice; 1 nM PAMP with 100 nM PAMP(12-20) (hundred-fold excess)", "result": "inhibited angiogenesis to the basal levels"}, {"measurement": "inhibition of the angiogenic response elicited by PAMP", "setting": "athymic nude mice; 1 nM full-length PAMP with increasing doses of PAMP(12-20)", "result": "dose-dependent inhibition"}, {"measurement": "effect on basal angiogenesis", "setting": "athymic nude mice; PAMP(12-20) by itself", "result": "did not modify basal angiogenesis"}, {"measurement": "inhibition of tumor cell-induced angiogenic response", "setting": "A549", "result": "completely blocked"}, {"measurement": "inhibition of tumor cell-induced angiogenic response", "setting": "H1299", "result": "completely blocked"}, {"measurement": "reversal of PAMP block of ATP-induced calcium response", "setting": "[1]", "result": "initial response was recovered"}, {"measurement": "treatment time after which statistical differences in tumor size were observed", "setting": "A549 tumors; 1 mM PAMP(12-20) versus PBS, ten mice per group", "result": "nine"}, {"measurement": "tumor growth versus PBS control", "setting": "A549 tumors; 1 mM PAMP(12-20), 100 μl intratumoral injection three times a week", "result": "slower rate of tumor growth"}]}]}
